Measurements taken from paper PMC5840523, “Assessment of a pretomanid analogue library for African trypanosomiasis: Hit-to-lead studies on 6-substituted 2-nitro-6,7-dihydro-5H-imidazo[2,1-b][1,3]thiazine 8-oxides” (Bioorganic & Medicinal Chemistry Letters, 2018).
Values after ≈ are worked out from the molar mass of the structure shown. Read-outs that look alike come from different tables or passages of the source.

Key:
[1] = system: T. b. brucei; set-up: method as in PMID 20439607; settings: read-out: IC50 versus T. b. brucei; cited from earlier work
[2] = set-up: method as in PMID 25141257; settings: cited from earlier work
[3] = system: T. b. brucei 427; assay: T. b. brucei 427 growth inhibition (Scynexis); type: cell-based, Trypanosoma brucei brucei
[4] = system: L929 mouse fibroblasts; assay: Cytotoxicity toward L929 mouse fibroblasts (Scynexis); type: cell-based
[5] = in vitro; settings: dog, MDCK-MDR1, Permeability Papp
[6] = Mouse pharmacokinetics (plasma, whole blood, brain); type: in vivo, male CD-1 mice; settings: for bioavailability: from dose normalised AUClast values, read-out: F (oral bioavailability); for Vd: read-out: Vdss
Procedure: In order to determine the suitability of the more permeable hits for in vivo efficacy studies, we first measured their aqueous solubilities, and their tendencies to metabolise, following a 1 h incubation with CD-1 mouse liver S9 subcellular fractions.[14] […] This led us to probe their in vivo pharmacokinetic (PK) profiles in mice, examining concentration levels in plasma, whole blood and brain tissue following both intravenous and oral administration (Table 2; for further experimental details, see the Supporting Information). […]
Mouse Pharmacokinetics. The in-life portion of PK testing was carried out by ViviSource Laboratories, Inc., Mass achusetts, USA, and PK samples were anal ysed by Sc ynexis, Inc.
Test compounds (9, 12, 17, and 19) w er e each administered as single doses to groups of 10 male CD-1 mice by bolus intravenous injection or oral gavage. Intravenous dosing (at a nominal dose of 2 mg/kg) emplo yed a solution vehicle comprising either 20% EtOH, 20% propylene gl ycol, and 30% PEG -400 in normal saline (for powders 9, 17, and 19) or 0.5% (hydrox yprop yl)meth ylcellulose, 0.4% Tween 80, 0.5% benz yl alcohol, and 20% DMSO i n deionised water (for oil 12). […]
in 0.5% methylcellulose, 0.08% Tween 80 in water ( ex cept fo r oil 12, where the formulation additionally contained 20% DMSO). […]

[7] = Kinetic aqueous solubility in pH 7.4 PBS; type: physicochemical
Text: Table 1 Inhibitory potency, metabolic stability, aqueous solubility, and MDCK-MDR1 cell permeability for 15 screening hits against T. b. brucei. | column: Solubility ^c / (µg/mL)

[8] = Mouse liver S9 stability; type: in vitro ADME; settings: CD-1, mouse, mouse liver S9 subcellular fraction, half-life in mouse liver S9 fraction; read-out: Mouse S9 t1/2
[9] = late stage HAT patients; cited from earlier work
[10] = male, CD-1, mouse, brain, intravenous, corrected doses 0.5, 1.1, 2.9, 2.0 mg/kg for 9, 12, 17, 19
[11] = male, CD-1, mouse, brain, oral, corrected doses 62, 50, 78, 49 mg/kg for 9, 12, 17, 19
[12] = male, CD-1, mouse, plasma, intravenous, corrected doses 0.5, 1.1, 2.9, 2.0 mg/kg for 9, 12, 17, 19
[13] = male, CD-1, mouse, plasma, oral, corrected doses 62, 50, 78, 49 mg/kg for 9, 12, 17, 19
[14] = male, CD-1, mouse, whole blood, intravenous, corrected doses 0.5, 1.1, 2.9, 2.0 mg/kg for 9, 12, 17, 19
[15] = male, CD-1, mouse, whole blood, oral, corrected doses 62, 50, 78, 49 mg/kg for 9, 12, 17, 19

SMILES: O=[N+]([O-])c1cn2c(n1)OC[C@@H](OCc1ccc(OC(F)(F)F)cc1)C2 [Compound 6, pretomanid]
- IC50 [1]: 38 µM
- oral half-life in mouse lung tissue [2]: 4.8 h

SMILES: O=[N+]([O-])c1cn2c(n1)OC[C@@H](NCc1ccc(OC(F)(F)F)cc1)C2 [Compound 17]
- Selectivity Index ([3]; L929 vs T. b. brucei): >13
- IC50 ([3]; Trypanosoma brucei, growth inhibition of T. b. brucei 427, mean ± SD): 0.78 ± 0.01 µg/mL (≈ 2.18 µM)
- IC50 [4]: > 10 µg/mL
- Papp at 1 h, 3 µM [5]: 80.4 ×10⁻⁶ cm/s
- time beyond which exposure above the MIC is inadequate ([6]; male, CD-1, mouse, in vivo, po): ~2 h
- half-life ([6]; male, CD-1, mouse, po, 78 mg/kg, over plasma, whole blood, brain, read-out: oral half-life): 1.2 to 1.5 h
- bioavailability ([6]; male, CD-1, mouse, po, brain): 100%
- bioavailability ([6]; male, CD-1, mouse, po, plasma): 100%
- bioavailability ([6]; male, CD-1, mouse, po, whole blood): 100%
- AUC(0-t) [6, 10]: 962 ng·h/mL
- clearance [6, 10]: 48.3 mL/min/kg
- Vd [6, 10]: 2.3 L/kg
- half-life ([6]; male, CD-1, mouse, brain, intravenous, corrected doses 0.5, 1.1, 2.9, 2.0 mg/kg for 9, 12, 17, 19, read-out: t1/2 (converted)): 0.26 h
- AUC(0-t) [6, 11]: 50900 ng·h/mL
- Cmax [6, 11]: 35000 ng/mL
- Tmax [6, 11]: 0.5 h
- half-life ([6]; male, CD-1, mouse, brain, oral, corrected doses 62, 50, 78, 49 mg/kg for 9, 12, 17, 19, read-out: t1/2 (converted)): 1.3 h
- AUC(0-t) [6, 12]: 418 ng·h/mL
- clearance [6, 12]: 113 mL/min/kg
- Vd [6, 12]: 4.7 L/kg
- half-life ([6]; male, CD-1, mouse, plasma, intravenous, corrected doses 0.5, 1.1, 2.9, 2.0 mg/kg for 9, 12, 17, 19, read-out: t1/2 (converted)): 0.48 h
- AUC(0-t) [6, 13]: 20500 ng·h/mL
- Cmax [6, 13]: 12000 ng/mL
- Tmax [6, 13]: 1 h
- half-life ([6]; male, CD-1, mouse, plasma, oral, corrected doses 62, 50, 78, 49 mg/kg for 9, 12, 17, 19, read-out: t1/2 (converted)): 1.2 h
- AUC(0-t) [6, 14]: 1100 ng·h/mL
- clearance [6, 14]: 40 mL/min/kg
- Vd [6, 14]: 8.1 L/kg
- half-life ([6]; male, CD-1, mouse, whole blood, intravenous, corrected doses 0.5, 1.1, 2.9, 2.0 mg/kg for 9, 12, 17, 19, read-out: t1/2 (converted)): 9.3 h
- AUC(0-t) [6, 15]: 42200 ng·h/mL
- Cmax [6, 15]: 26000 ng/mL
- Tmax [6, 15]: 0.5 h
- half-life ([6]; male, CD-1, mouse, whole blood, oral, corrected doses 62, 50, 78, 49 mg/kg for 9, 12, 17, 19, read-out: t1/2 (converted)): 1.5 h
- concentration levels in brain tissue relative to plasma (fold higher) ([6]; mouse, in vivo): 2- to 3 fold
- solubility [7]: > 72 µg/mL
- half-life [8]: > 5.83 h
- oral half-life in mouse lung tissue [2]: 1.3 h

SMILES: Nc1nc(N)nc(Nc2ccc([As]3SCC(CO)S3)cc2)n1 (stereo not shown) [melarsoprol]
- death of patients caused by treatment [9]: ~5%
